From US10093563B2, “Method for making chelating base product used in water-based systems” (Earth Science Laboratories, priority 2015, dated 2018)

System: Cotton plants (Gossypium hirsutum L.)
Experiment: foliar zinc micronutrient delivery to cotton plants
Format: in vivo
Conditions: for Carotenoids / Chlorophylls / Electron Transport Rate / Membrane Leakage: cotton leaf
From the text: An illustrative example of micronutrient delivery is the delivery of zinc (Zn) complexed to the chelant detailed herein to growing plants via foliar application. In this example, the experiment design was a Randomized Complete Design of 4 treatments of 10 replications for each of five parameters: (1) total chlorophyll by measuring fluorescence, (2) total carotenoids by measuring absorbance following organic solvent extraction, (3) electron transport rate by measuring light absorption and fluorometry, (4) membrane leakage by measuring change in electrolyte concentrations, and (5) leaf tissue concentrations of zinc by digesting samples in nitric acid followed by atomic absorption spectrophotometry. Leaf samples were collected at weekly intervals after squaring. Cotton plants (Gossypium hirsutum L.) were grown in a climate controlled chamber on a 14/10 hour, 30/20° C. diurnal cycle, respectively. Individual plants were grown in 48, 3 liter pots containing nutrient deficient potting soil. Plants received identical treatment for nutrition and growth management until squaring. At squaring, the first round of measurements were made and treatments sprayed via a CO2 backpack sprayer with plants arranged in rows. Sprays were allowed to dry before returning to the climate controlled chamber to minimize cross contamination of treatments due to foliar contact. Plants were then grown for an additional two to three weeks with nutrients being supplied via zinc-free Hoagland's solution without added Zn for treatments: ESL-Zn (base product fluid solution), Zinc Sulfate, and Low Zinc. The elemental composition of Hoagland's solution is as follows: N 210 mg/L, K 235 mg/L, Ca 200 mg/L, P 31 mg/L, S 64 mg/L, Mg 48 mg/L, B 0.5 mg/L, Fe 1 to 5 mg/L, Mn 0.5 mg/L, Zn 0.05 mg/L, Cu 0.02 mg/L, and Mo 0.01 mg/L. The four treatments and descriptions were (1) “Control” (no foliar spray addition of Zn), (2) “Low Zn” (No foliar spray addition and the Zn concentration of the Hoagland's solution was reduced to 0.025 mg/L, (3) “ZnSO4” (Foliar spray equivalent of 1% solution [e.g., 8 lbs. of 36% ZnSO4 in 100 gallons H2O] at 15 gallons/acre, and (4) “ESL-Zn” (Foliar spray equivalent of 1% solution [e.g., 8 lbs. of 36% ZnSO4 in 100 gallons H2O] at 15 gallons/acre).

[1] = week 1 (at squaring, measured before foliar spray)
[2] = week 2, foliar spray equivalent of 1% solution at 15 gallons/acre
[3] = week 3, foliar spray equivalent of 1% solution at 15 gallons/acre

SMILES: O=S(=O)([O-])[O-].[Zn+2] [ZnSO4, Zinc Sulfate]
- Carotenoids [1]: 1.713 μg carotenoids/mg dry weight
- Chlorophylls [1]: 11.88 μg pigments/mg dry weight
- Electron Transport Rate [1]: 71 μmol electrons m^−2 s^−
- Membrane Leakage [1]: 34.68%
- Carotenoids [2]: 2.322 μg carotenoids/mg dry weight
- Chlorophylls [2]: 12.67 μg pigments/mg dry weight
- Electron Transport Rate [2]: 70 μmol electrons m^−2 s^−
- Membrane Leakage [2]: 28.12%
- Carotenoids [3]: 1.559 μg carotenoids/mg dry weight
- Chlorophylls [3]: 10.72 μg pigments/mg dry weight
- Electron Transport Rate [3]: 68 μmol electrons m^−2 s^−
- Membrane Leakage [3]: 27.06%
- Zn (leaf tissue concentration) [1]: 27.46 ppm or mg/L
- Zn (leaf tissue concentration) [2]: 61.29 ppm or mg/L
- Zn (leaf tissue concentration) [3]: 27.52 ppm or mg/L
